Source: US11173151B2, “Substituted triazole derivatives and uses thereof” (BAYER AKTIENGESELLSCHAFT, priority 2017, dated 2021)

Experiments:
human V1a receptor = molecular target: T1, human V1a receptor (Homo sapiens, UniProt P37288); assay: Cellular in vitro assay for determining vasopressin receptor activity, V1a receptor cell line (CHO, aequorin luminescence); type: cell-based; conditions: for IC50: CHO cell line transfected with human V1a receptor, [Arg]-vasopressin at EC50 concentration, read-out: IC50 hV1a; for ratio IC50 hV2/hV1a: selectivity ratio IC50 hV2 / IC50 hV1a
T1 construct: expressed in transfected cells; host or cells: CHO K1 (ATCC), also stably transfected with a modified aequorin
How it was run: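 Antagonism is measured in stable CHO K1 transfectants coexpressing the Gαq-coupled receptor and a calcium-sensitive aequorin photoprotein. Agonist challenge uses [Arg]-vasopressin at EC50 after a 10-minute compound exposure; IC50 values come from the luminescence signal.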

human V2 receptor = molecular target: T2, human V2 receptor (Homo sapiens, UniProt P30518); assay: Cellular in vitro assay for determining vasopressin receptor activity, V2 receptor cell line (CHO, CRE-luciferase); type: cell-based; conditions: CHO cell line transfected with human V2 receptor; [Arg8]-vasopressin at EC50 concentration, 3 hours; read-out: IC50 hV2
T2 construct: expressed in transfected cells; host or cells: CHO K1 (ATCC) expressing firefly luciferase under a CRE-responsive promoter
T2 sequence (P30518 whole entry): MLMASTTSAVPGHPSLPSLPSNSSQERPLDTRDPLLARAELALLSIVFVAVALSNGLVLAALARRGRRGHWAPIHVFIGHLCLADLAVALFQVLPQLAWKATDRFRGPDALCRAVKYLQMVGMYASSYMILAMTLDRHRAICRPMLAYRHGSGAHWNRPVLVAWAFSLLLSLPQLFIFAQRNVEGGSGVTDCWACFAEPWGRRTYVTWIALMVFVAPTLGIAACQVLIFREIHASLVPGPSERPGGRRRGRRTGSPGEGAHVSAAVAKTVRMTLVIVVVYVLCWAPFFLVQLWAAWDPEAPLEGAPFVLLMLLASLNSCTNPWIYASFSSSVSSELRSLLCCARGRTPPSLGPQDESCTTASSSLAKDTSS

T1 sequence (P37288 whole entry): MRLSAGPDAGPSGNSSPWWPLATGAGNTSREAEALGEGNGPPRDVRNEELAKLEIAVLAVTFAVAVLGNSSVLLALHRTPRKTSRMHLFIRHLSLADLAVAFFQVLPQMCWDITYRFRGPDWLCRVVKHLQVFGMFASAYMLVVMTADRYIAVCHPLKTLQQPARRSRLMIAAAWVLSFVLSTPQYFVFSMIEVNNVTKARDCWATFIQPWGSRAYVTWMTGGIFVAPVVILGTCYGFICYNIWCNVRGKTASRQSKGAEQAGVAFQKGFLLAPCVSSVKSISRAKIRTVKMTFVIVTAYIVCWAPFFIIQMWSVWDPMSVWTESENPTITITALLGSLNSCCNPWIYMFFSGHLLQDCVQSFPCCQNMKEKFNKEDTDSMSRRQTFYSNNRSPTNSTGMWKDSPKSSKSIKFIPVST

Row | Structure (SMILES) | IC50 (human V1a receptor) | ratio IC50 hV2/hV1a (human V1a receptor) | IC50 (human V2 receptor)
1 | O=C(NCc1cccs1)c1ccccc1-n1cnc(Cn2nc(-c3ccc(Cl)cc3)n(C[C@H](O)C(F)(F)F)c2=O)n1 [Example 253, 2-[3-({3-(4-Chlorophenyl)-5-oxo-4-[(2S)-3,3,3-trifluoro-2-hydroxypropyl]-4,5-dihydro-1H-1,2,4-triazol-1-yl}methyl)-1H-1,2,4-triazol-1-yl]-N-(thiophen-2-ylmethyl)benzamide] | 5.7 nM | 64.0 | 365 nM
2 | Cc1cc(NC(=O)c2ccccc2-n2cnc(Cn3nc(-c4ccc(Cl)cc4)n(C[C@H](O)C(F)(F)F)c3=O)n2)ccn1 [Example 254, 2-[3-({3-(4-Chlorophenyl)-5-oxo-4-[(2S)-3,3,3-trifluoro-2-hydroxypropyl]-4,5-dihydro-1H-1,2,4-triazol-1-yl}methyl)-1H-1,2,4-triazol-1-yl]-N-(2-methylpyridin-4-yl)benzamide] | 2.25 nM | 297.8 | 670 nM
3 | O=C(Nc1cncc(F)c1)c1ccccc1-n1cnc(Cn2nc(-c3ccc(Cl)cc3)n(C[C@H](O)C(F)(F)F)c2=O)n1 [Example 255, 2-[3-({3-(4-Chlorophenyl)-5-oxo-4-[(2S)-3,3,3-trifluoro-2-hydroxypropyl]-4,5-dihydro-1H-1,2,4-triazol-1-yl}methyl)-1H-1,2,4-triazol-1-yl]-N-(5-fluoropyridin-3-yl)benzamide] | 1.33 nM | 169.8 | 225 nM
4 | Cc1cnc(NC(=O)c2ccccc2-n2cnc(Cn3nc(-c4ccc(Cl)cc4)n(C[C@H](O)C(F)(F)F)c3=O)n2)s1 [Example 256, 2-[3-({3-(4-Chlorophenyl)-5-oxo-4-[(2S)-3,3,3-trifluoro-2-hydroxypropyl]-4,5-dihydro-1H-1,2,4-triazol-1-yl}methyl)-1H-1,2,4-triazol-1-yl]-N-(5-methyl-1,3-thiazol-2-yl)benzamide] | 3.6 nM | 3.6 | 13 nM
5 | O=C(Nc1ccncn1)c1ccccc1-n1cnc(Cn2nc(-c3ccc(Cl)cc3)n(C[C@H](O)C(F)(F)F)c2=O)n1 [Example 257, 2-[3-({3-(4-Chlorophenyl)-5-oxo-4-[(2S)-3,3,3-trifluoro-2-hydroxypropyl]-4,5-dihydro-1H-1,2,4-triazol-1-yl}methyl)-1H-1,2,4-triazol-1-yl]-N-(pyrimidin-4-yl)benzamide] | 6.05 nM | 24.8 | 150 nM
6 | O=C(Nc1ccccc1Cl)c1ccccc1-n1cnc(Cn2nc(-c3ccc(Cl)cc3)n(C[C@H](O)C(F)(F)F)c2=O)n1 [Example 258, N-(2-Chlorophenyl)-2-[3-({3-(4-chlorophenyl)-5-oxo-4-[(2S)-3,3,3-trifluoro-2-hydroxypropyl]-4,5-dihydro-1H-1,2,4-triazol-1-yl}methyl)-1H-1,2,4-triazol-1-yl]benzamide] | 1.9 nM | 42.9 | 81.5 nM
7 | Cc1csc(NC(=O)c2ccccc2-n2cnc(Cn3nc(-c4ccc(Cl)cc4)n(C[C@H](O)C(F)(F)F)c3=O)n2)n1 [Example 259, 2-[3-({3-(4-Chlorophenyl)-5-oxo-4-[(2S)-3,3,3-trifluoro-2-hydroxypropyl]-4,5-dihydro-1H-1,2,4-triazol-1-yl}methyl)-1H-1,2,4-triazol-1-yl]-N-(4-methyl-1,3-thiazol-2-yl)benzamide] | 2.5 nM | 22.0 | 55 nM
8 | CC1=C(C)CN(C(=O)c2ccccc2-n2cnc(Cn3nc(-c4ccc(Cl)cc4)n(C[C@H](O)C(F)(F)F)c3=O)n2)CC1 [Example 260, 5-(4-Chlorophenyl)-2-[(1-{2-[(4,5-dimethyl-3,6-dihydropyridin-1(2H)-yl)carbonyl]phenyl}-1H-1,2,4-triazol-3-yl)methyl]-4-[(2S)-3,3,3-trifluoro-2-hydroxypropyl]-2,4-dihydro-3H-1,2,4-triazol-3-one] | 25.5 nM | 29.8 | 760 nM
9 | CCN(OC)C(=O)c1ccccc1-n1cnc(Cn2nc(-c3ccc(Cl)cc3)n(C[C@H](O)C(F)(F)F)c2=O)n1 [Example 261, 2-[3-({3-(4-Chlorophenyl)-5-oxo-4-[(2S)-3,3,3-trifluoro-2-hydroxypropyl]-4,5-dihydro-1H-1,2,4-triazol-1-yl}methyl)-1H-1,2,4-triazol-1-yl]-N-ethyl-N-methoxybenzamide] | 1.45 nM | 310.3 | 450 nM
10 | O=C(c1ccccc1-n1cnc(Cn2nc(-c3ccc(Cl)cc3)n(C[C@H](O)C(F)(F)F)c2=O)n1)N1C[C@@H]2C[C@H]1CO2 [Example 262, 5-(4-Chlorophenyl)-2-[(1-{2-[(1S,4S)-2-oxa-5-azabicyclo[2.2.1]hept-5-ylcarbonyl]phenyl}-1H-1,2,4-triazol-3-yl)methyl]-4-[(2S)-3,3,3-trifluoro-2-hydroxypropyl]-2,4-dihydro-3H-1,2,4-triazol-3-one] | 3.4 nM | 258.8 | 880 nM
11 | O=CN1CCN(C(=O)c2ccccc2-n2cnc(Cn3nc(-c4ccc(Cl)cc4)n(C[C@H](O)C(F)(F)F)c3=O)n2)CC1 [Example 263, 4-{2-[3-({3-(4-Chlorophenyl)-5-oxo-4-[(2S)-3,3,3-trifluoro-2-hydroxypropyl]-4,5-dihydro-1H-1,2,4-triazol-1-yl}methyl)-1H-1,2,4-triazol-1-yl]benzoyl}piperazine-1-carbaldehyde] | 32.5 nM | 256.9 | 8350 nM
12 | CN(C)C(=O)c1ccccc1-n1cnc(Cn2nc(-c3ccc(Cl)cc3)n(C[C@H](O)C(F)(F)F)c2=O)n1 [Example 264, 2-[3-({3-(4-Chlorophenyl)-5-oxo-4-[(2S)-3,3,3-trifluoro-2-hydroxypropyl]-4,5-dihydro-1H-1,2,4-triazol-1-yl}methyl)-1H-1,2,4-triazol-1-yl]-N,N-dimethylbenzamide] | 2.45 nM | 512.2 | 1260 nM
13 | O=C1CCN(C(=O)c2ccccc2-n2cnc(Cn3nc(-c4ccc(Cl)cc4)n(C[C@H](O)C(F)(F)F)c3=O)n2)CCN1 [Example 265, 1-{2-[3-({3-(4-Chlorophenyl)-5-oxo-4-[(2S)-3,3,3-trifluoro-2-hydroxypropyl]-4,5-dihydro-1H-1,2,4-triazol-1-yl}methyl)-1H-1,2,4-triazol-1-yl]benzoyl}-1,4-diazepan-5-one] | 34.5 nM | 255.1 | 8800 nM
14 | CC1CCN(C(=O)c2ccccc2-n2cnc(Cn3nc(-c4ccc(Cl)cc4)n(C[C@H](O)C(F)(F)F)c3=O)n2)C(C)C1 (stereo partly drawn) [Example 266, 5-(4-Chlorophenyl)-2-[(1-{2-[(2,4-dimethylpiperidin-1-yl)carbonyl]phenyl}-1H-1,2,4-triazol-3-yl)methyl]-4-[(2S)-3,3,3-trifluoro-2-hydroxypropyl]-2,4-dihydro-3H-1,2,4-triazol-3-one] | 3.85 nM | 223.4 | 860 nM
15 | CC1CN(C(=O)c2ccccc2-n2cnc(Cn3nc(-c4ccc(Cl)cc4)n(C[C@H](O)C(F)(F)F)c3=O)n2)CCN1C (stereo partly drawn) [Example 267] | 33.5 nM | 119.4 | 4000 nM
16 | O=C(c1ccccc1-n1cnc(Cn2nc(-c3ccc(Cl)cc3)n(C[C@H](O)C(F)(F)F)c2=O)n1)N1CCC(F)(F)C1 [Example 268, 5-(4-Chlorophenyl)-2-[(1-{2-[(3,3-difluoropyrrolidin-1-yl)carbonyl]phenyl}-1H-1,2,4-triazol-3-yl)methyl]-4-[(2S)-3,3,3-trifluoro-2-hydroxypropyl]-2,4-dihydro-3H-1,2,4-triazol-3-one] | 3.65 nM | 265.8 | 970 nM
17 | COC1CCN(C(=O)c2ccccc2-n2cnc(Cn3nc(-c4ccc(Cl)cc4)n(C[C@H](O)C(F)(F)F)c3=O)n2)CC1 [Example 271, 5-(4-Chlorophenyl)-2-[(1-{2-[(4-methoxypiperidin-1-yl)carbonyl]phenyl}-1H-1,2,4-triazol-3-yl)methyl]-4-[(2S)-3,3,3-trifluoro-2-hydroxypropyl]-2,4-dihydro-3H-1,2,4-triazol-3-one] | 14.5 nM | 241.4 | 3500 nM
18 | CN(CC(F)(F)F)C(=O)c1ccccc1-n1cnc(Cn2nc(-c3ccc(Cl)cc3)n(C[C@H](O)C(F)(F)F)c2=O)n1 [Example 272, 2-[3-({3-(4-Chlorophenyl)-5-oxo-4-[(2S)-3,3,3-trifluoro-2-hydroxypropyl]-4,5-dihydro-1H-1,2,4-triazol-1-yl}methyl)-1H-1,2,4-triazol-1-yl]-N-methyl-N-(2,2,2-trifluoroethyl)benzamide] | 5.85 nM | 299.1 | 1750 nM
19 | CN1CC2CC1CN2C(=O)c1ccccc1-n1cnc(Cn2nc(-c3ccc(Cl)cc3)n(C[C@H](O)C(F)(F)F)c2=O)n1 (stereo partly drawn) [Example 273, 5-(4-Chlorophenyl)-2-[(1-{2-[(5-methyl-2,5-diazabicyclo[2.2.1]hept-2-yl)carbonyl]phenyl}-1H-1,2,4-triazol-3-yl)methyl]-4-[(2S)-3,3,3-trifluoro-2-hydroxypropyl]-2,4-dihydro-3H-1,2,4-triazol-3-one] | 13 nM | 476.9 | 6200 nM
20 | CN(C(=O)c1ccccc1-n1cnc(Cn2nc(-c3ccc(Cl)cc3)n(C[C@H](O)C(F)(F)F)c2=O)n1)C1CCCC1 [Example 276, 2-[3-({3-(4-Chlorophenyl)-5-oxo-4-[(2S)-3,3,3-trifluoro-2-hydroxypropyl]-4,5-dihydro-1H-1,2,4-triazol-1-yl}methyl)-1H-1,2,4-triazol-1-yl]-N-cyclopentyl-N-methylbenzamide] | 2.7 nM | 425.9 | 1150 nM
